Key:
BRPF1 = molecular target: T1, BRPF1 (Homo sapiens, UniProt P55201); experiment: BROMOscan binding to recombinant human bromodomains; conditions: 10 μM
T1 construct: purchased BROMOscan (service)

p300 = molecular target: T2, p300 (Homo sapiens, UniProt Q09472); experiment: Global proteome profiling in SUDHL5, p300 abundance; type: cell-based; conditions: SUDHL5, 10 nM, 24 hours
T2 construct: endogenous in cells; host or cells: SUDHL5
Protocol: (§1) SUDHL5 cells (6M cells in 6 mL RPMI-1640 media supplemented with 10% FBS and 1x pen-strep) were treated with 0.1% DMSO, 10 nM TCIP3, 10 nM Neg1, 10 nM Neg2, or 250 nM dCBP1 (1000x stocks in DMSO for final 0.1% DMSO concentration) in 3 biologically independent replicates. The cells were washed twice with TBS (50 mM Tris, pH 8.5, and 150 mM NaCl) and then stored at −80 °C until use.
(§2) Lysis was performed by first thermally denaturing the samples in residual wash buffer for 5 min at 95 °C. Fresh Lysis Buffer (8 M urea, 150 mM NaCl, and 100 mM HEPES, pH 8.0, in MS-grade water) was then added, and the lysates were homogenized using needle ultrasonication and then normalized to 30 μg of 2 mg/mL by diluting with Lysis Buffer via a Bradford protein concentration assay (Bio-Rad 5000006) in technical duplicates. […]
(§3) Samples were then desalted using SOLAμ SPE HRP Peptide Desalting columns (Thermo 60209–001) with a Positive Pressure Manifold and all MS-grade reagents. […] The samples were then reconstituted in 0.1% FA in water and then analyzed by LC-MS/MS (see below).
(§4) The reconstituted desalted peptides were then analyzed using a nanoElute 2 UHPLC (Bruker Daltonics, Bremen, Germany) coupled to a timsTOF HT (Bruker Daltonics, Bremen, Germany) via a CaptiveSpray nano-electrospray source. […]

CBP = molecular target: T3, CBP (Homo sapiens, UniProt Q92793); experiment: Global proteome profiling in SUDHL5, CBP abundance; type: cell-based; conditions: SUDHL5, 10 nM, 24 hours
T3 construct: endogenous in cells; host or cells: SUDHL5
T3 sequence (Q92793 whole entry): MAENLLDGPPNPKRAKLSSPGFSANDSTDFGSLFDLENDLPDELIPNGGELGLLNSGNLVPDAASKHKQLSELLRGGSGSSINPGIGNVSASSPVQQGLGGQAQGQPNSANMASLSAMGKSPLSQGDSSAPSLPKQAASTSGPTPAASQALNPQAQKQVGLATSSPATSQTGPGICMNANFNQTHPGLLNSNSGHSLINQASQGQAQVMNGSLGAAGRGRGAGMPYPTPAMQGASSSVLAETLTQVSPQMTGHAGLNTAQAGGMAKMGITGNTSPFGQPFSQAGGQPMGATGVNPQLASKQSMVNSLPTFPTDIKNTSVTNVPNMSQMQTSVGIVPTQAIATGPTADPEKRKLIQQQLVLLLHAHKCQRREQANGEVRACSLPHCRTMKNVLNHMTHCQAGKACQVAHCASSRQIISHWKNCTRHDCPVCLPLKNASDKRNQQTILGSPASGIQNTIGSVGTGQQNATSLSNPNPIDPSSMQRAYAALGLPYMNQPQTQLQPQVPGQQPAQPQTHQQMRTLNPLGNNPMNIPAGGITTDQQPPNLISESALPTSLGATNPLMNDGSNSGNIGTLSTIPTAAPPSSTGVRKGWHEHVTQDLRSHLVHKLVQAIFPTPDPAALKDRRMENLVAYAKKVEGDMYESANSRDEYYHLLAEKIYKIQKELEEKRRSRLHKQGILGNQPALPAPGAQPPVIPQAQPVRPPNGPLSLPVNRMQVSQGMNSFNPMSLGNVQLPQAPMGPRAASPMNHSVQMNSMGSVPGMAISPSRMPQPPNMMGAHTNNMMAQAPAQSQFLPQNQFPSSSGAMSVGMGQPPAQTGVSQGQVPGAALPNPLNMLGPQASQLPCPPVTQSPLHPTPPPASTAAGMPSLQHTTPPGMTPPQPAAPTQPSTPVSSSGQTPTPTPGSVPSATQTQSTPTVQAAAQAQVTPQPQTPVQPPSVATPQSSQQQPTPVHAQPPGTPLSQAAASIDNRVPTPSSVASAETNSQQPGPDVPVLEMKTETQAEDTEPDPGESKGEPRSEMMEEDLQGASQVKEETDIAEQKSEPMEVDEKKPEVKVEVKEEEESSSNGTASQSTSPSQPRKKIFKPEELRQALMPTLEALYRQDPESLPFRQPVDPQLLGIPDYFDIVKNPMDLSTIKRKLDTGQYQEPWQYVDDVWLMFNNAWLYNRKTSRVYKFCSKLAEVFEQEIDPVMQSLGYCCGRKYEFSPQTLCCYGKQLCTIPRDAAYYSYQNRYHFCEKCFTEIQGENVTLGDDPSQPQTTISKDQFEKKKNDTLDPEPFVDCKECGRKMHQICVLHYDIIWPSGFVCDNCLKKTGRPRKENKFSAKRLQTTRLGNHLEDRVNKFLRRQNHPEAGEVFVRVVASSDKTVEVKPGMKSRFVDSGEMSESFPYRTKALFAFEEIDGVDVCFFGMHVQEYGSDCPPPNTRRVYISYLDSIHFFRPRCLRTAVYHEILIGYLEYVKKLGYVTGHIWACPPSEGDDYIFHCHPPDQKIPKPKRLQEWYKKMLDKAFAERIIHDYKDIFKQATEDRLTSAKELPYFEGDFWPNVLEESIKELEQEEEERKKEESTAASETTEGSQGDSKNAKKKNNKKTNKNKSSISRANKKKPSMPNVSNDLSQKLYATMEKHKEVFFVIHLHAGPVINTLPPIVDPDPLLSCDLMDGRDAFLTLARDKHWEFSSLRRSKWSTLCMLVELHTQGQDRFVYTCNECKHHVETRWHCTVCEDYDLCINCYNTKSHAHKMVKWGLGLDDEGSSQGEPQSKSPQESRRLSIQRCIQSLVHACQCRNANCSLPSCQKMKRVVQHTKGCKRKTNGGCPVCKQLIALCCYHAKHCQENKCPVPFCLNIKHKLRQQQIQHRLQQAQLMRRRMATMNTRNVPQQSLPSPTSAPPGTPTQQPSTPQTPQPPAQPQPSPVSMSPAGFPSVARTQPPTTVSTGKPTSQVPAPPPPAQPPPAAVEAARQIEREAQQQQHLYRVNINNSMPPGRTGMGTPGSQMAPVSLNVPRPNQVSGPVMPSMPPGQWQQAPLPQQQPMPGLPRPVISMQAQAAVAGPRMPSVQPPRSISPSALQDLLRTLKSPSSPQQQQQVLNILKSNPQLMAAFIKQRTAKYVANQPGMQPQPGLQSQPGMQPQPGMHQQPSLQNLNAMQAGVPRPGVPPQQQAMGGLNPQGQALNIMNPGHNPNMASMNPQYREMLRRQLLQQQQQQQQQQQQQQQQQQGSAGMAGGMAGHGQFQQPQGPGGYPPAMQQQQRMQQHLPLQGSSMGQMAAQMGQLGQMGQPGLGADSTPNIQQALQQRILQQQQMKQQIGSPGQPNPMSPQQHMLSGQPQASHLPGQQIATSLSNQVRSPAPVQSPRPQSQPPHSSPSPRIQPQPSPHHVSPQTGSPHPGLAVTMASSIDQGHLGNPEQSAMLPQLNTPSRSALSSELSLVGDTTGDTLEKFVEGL
Protocol: as §1, §2, §3, §4

T2 sequence (Q09472 2-2414 limits assumed, other chains not shown): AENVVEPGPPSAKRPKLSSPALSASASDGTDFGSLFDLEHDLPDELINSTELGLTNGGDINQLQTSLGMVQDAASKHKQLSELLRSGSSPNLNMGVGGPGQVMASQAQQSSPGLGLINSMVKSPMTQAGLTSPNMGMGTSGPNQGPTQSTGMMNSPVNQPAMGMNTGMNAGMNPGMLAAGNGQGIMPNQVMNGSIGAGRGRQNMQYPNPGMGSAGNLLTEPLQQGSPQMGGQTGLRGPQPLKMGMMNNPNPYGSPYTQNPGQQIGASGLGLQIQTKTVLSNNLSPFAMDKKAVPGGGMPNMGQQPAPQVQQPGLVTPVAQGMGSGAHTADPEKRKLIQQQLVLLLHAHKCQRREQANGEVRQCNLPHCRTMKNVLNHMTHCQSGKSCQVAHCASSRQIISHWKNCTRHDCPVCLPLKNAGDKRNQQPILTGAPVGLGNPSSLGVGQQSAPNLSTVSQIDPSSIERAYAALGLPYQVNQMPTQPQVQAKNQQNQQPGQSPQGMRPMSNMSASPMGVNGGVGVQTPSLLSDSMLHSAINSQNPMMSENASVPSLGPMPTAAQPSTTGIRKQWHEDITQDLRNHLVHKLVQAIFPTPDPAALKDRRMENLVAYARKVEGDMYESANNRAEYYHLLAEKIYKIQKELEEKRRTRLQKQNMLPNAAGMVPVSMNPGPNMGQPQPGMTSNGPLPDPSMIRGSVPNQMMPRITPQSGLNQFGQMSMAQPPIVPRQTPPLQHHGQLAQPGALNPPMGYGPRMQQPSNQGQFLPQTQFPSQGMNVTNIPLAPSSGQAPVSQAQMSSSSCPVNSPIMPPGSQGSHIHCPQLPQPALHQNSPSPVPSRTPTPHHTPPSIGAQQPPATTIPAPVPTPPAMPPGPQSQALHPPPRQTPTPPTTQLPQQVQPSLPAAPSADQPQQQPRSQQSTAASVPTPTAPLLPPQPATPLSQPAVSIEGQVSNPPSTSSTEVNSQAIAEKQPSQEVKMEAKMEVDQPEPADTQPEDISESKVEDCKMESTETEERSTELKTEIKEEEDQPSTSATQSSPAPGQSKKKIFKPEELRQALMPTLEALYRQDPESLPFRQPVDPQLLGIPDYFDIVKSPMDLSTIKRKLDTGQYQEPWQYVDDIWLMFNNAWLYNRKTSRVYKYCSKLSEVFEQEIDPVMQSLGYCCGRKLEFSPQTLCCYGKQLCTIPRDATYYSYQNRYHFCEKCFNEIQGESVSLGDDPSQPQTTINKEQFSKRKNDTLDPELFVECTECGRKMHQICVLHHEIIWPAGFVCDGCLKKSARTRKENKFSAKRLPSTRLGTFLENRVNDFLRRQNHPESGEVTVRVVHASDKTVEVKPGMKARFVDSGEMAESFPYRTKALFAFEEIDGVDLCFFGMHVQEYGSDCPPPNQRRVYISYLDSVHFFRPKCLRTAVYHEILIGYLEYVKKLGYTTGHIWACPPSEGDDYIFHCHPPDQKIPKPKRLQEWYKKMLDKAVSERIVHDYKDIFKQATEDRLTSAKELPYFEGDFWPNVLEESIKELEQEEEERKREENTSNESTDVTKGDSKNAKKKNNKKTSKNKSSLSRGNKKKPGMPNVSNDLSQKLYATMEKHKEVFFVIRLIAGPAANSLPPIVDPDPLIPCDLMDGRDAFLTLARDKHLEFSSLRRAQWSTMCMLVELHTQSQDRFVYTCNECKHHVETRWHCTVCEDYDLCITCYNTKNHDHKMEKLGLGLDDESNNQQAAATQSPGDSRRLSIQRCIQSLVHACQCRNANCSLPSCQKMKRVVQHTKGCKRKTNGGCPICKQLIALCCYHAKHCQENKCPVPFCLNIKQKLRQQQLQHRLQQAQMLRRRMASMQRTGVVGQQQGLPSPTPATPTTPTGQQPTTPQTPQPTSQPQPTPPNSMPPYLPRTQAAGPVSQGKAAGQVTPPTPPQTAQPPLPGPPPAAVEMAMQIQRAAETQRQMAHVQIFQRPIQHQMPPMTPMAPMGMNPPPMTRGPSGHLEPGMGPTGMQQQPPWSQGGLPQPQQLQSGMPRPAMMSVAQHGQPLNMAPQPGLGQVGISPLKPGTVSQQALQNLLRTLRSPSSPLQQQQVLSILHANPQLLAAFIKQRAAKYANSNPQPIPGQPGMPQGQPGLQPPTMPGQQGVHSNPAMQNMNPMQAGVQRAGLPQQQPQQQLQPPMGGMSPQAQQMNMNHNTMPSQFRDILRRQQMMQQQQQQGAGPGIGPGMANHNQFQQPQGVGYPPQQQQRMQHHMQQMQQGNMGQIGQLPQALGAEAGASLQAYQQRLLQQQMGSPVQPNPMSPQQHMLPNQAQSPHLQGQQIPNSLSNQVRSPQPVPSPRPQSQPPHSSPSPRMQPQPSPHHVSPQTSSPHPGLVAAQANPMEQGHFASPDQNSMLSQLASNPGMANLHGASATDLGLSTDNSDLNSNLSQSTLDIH
T1 sequence (P55201 628-732 limits assumed): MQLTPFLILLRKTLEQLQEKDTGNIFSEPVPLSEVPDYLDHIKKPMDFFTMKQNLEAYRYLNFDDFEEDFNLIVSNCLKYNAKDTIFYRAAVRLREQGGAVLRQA

p300 protein abundance log2(fold change) (p300): 0.37
CBP protein abundance log2(fold change) (CBP): 0.58
SMILES: CNC(=O)COc1cc2cc(Nc3nc(N4CCC(C(=O)N5CCN(CCC(=O)N6CCC(n7nc(N8CCCc9cc(-c%10cnn(C)c%10)c(C(F)F)cc98)c8c7CCN(C(=O)NC)C8)CC6)CC5)CC4)ncc3Cl)cc(OC)c2n(C)c1=O [TCIP3]
bromodomain selectivity (BRPF1): may also engage BRPF1 at high compound concentrations

Reference: publication doi:10.1101/2025.03.14.643404, “A Bivalent Molecular Glue Linking Lysine Acetyltransferases to Oncogene-induced Cell Death” (bioRxiv, 2025)
